Test: Window pane method for critical energy Ec and laser penetration depth Dp
Type: physicochemical
Conditions: inhibitor added to resin formulation; for influence of inhibitor concentration on laser penetration depth Dp: FIGS. 1 and 3; for influence of inhibitor concentration on critical energy Ec: FIGS. 2 and 4
Protocol: Into the mixture according to the invention, 2,2,6,6-tetramethylpiperdine-1-yloxy (free radical) is added. The influence of the concentration of the 2,2,6,6-tetramethylpiperdine-1-yloxy (free radical) in the exemplary formalation 1 upon the penetration depth of the laser beam and energy has been shown in FIGS. 1 and 2. The laser penetration depth and the critical energy are determined by means of the window pane method described by P. F. Jacobs and D. R. Read in Rapid Prototyping and Manufacturing of the Society of Manufacturing Engineers, Dearborn, Mich. (1992), 1st, ed., pgs. 263-280. […] This influence of the inhibitor 2,2,6,6-tetramethylpiperdine-1-yloxy (free radical) upon the relevant parameters Ec (critical energy in mJ cm^−2) and Dp (laser penetration depth in mils) of the stereolithographic resin, the effect differing from the influence of the inhibitors like, for example, hydroquinone-monomethylether which are added to stereolithographic resins in accordance with the state of the art. The influence of the hydroquinonemonomethylether on the parameters Ec and Dp in the exemplary formulations 2 is shown in FIGS. 3 and 4.
The relevant parameters for the use of the above mentioned resins in stereolithography are collected in Table 1. All viscosity measurements were carried out at 23° C. with a CVO 120 rheometer of Bohlin Instruments. The determination of the bend strength, the modulus of elasticity and the elongation were carried out in accordance with EN ISO 178 (1996) with a Zwick 1—test machine of the Zwick firm. For the determination of the Ec and Dp values by means of the above mentioned window pane method, the average value from 10 window pane sample bodies was determined. The sample bodies were produced with a Viper Si^2 SLA apparatus equipped with an ND:YVO4 solid body laser. The green bodies were after hardened with a stroboscope lighting unit Sonolux PR from Innovation Meditech by means of 4000 flashes.

SMILES	influence of inhibitor concentration on laser penetration depth Dp	influence of inhibitor concentration on critical energy Ec
CC1(C)CCCC(C)(C)N1[O] [2,2,6,6-tetramethylpiperdine-1-yloxy (free radical)]	only a limited change in the penetration depth	surprising increase in the critical energy
COc1ccc(O)cc1 [hydroauinonemonomethylether, hydroquinone-monomethylether]	greater than in the case of the use of the 2,2,6,6-tetramethyl piperdine-1-yloxy (free radical)	can only be adjusted by significantly higher concentrations

From US7232646B2, “Low-viscous, radiation curable formulation, particularly for the stereo-lithographical production of earpiece” (Dreve-Otoplastik GmbH, priority 2003, dated 2007)
